# Measured values published in patent US20240317809A1, “Engineered Antimicrobial Peptides and Usage Thereof” (University of Pittsburgh-Of the Commonwealth System of …, priority 2021, published 2024).
# Where “and” joins values, the source holds several entries; their conditions need not be identical. Identical values can stand only once. Peptide text beside a SMILES is read from it.
# Legend:
# S. caprae = assay: Human patient knee explant study (Example 5), ex vivo CFU analysis; assay type: cell-based; conditions: treated vs untreated explant of same patient, 1 mg/mL, 15 minutes
# Procedure: (§1) Patients diagnosed with chronic PJI were prospectively enrolled (n=17). All patients met the diagnosis of PJI as defined by the 2018 International Consensus Meeting criteria. The implant was first washed with 50 ml Dulbecco's PBS (dPBS) and submerged ex vivo in an expected clinical exposure of 1 mg/mL WLBU-2 (SEQ ID: 10) in Dulbecco's PBS (dPBS) adjusted to pH 7.4 for 15 minutes. After treatment, the sample was washed with 50 mL of dPBS and sonicated in PBS containing 1% Tween 20 for 5 minutes. After sonication, 100 microliters of the implant sonication fluid was serially diluted, and plated for quantitative culture (CFU analysis). The remaining explanted implant from the same patient served as a control and was processed similarly but without exposure to WLBU-2 (SEQ ID: 10).
# S. aureus (MSSA) = assay: as above; assay type: cell-based; conditions: treated vs untreated explant of same patient, 1 mg/mL, 15 minutes
# Procedure: as §1
# S. hemolyticus = assay: as above; assay type: cell-based; conditions: treated vs untreated explant of same patient, 1 mg/mL, 15 minutes
# Procedure: as §1
# E. coli [1] = assay: as above; assay type: cell-based; conditions: treated vs untreated explant of same patient, 1 mg/mL, 15 minutes
# Procedure: as §1
# S. dysgalactiae = assay: as above; assay type: cell-based; conditions: treated vs untreated explant of same patient, 1 mg/mL, 15 minutes
# Procedure: as §1
# S. aureus (MRSA) = assay: as above; assay type: cell-based; conditions: treated vs untreated explant of same patient, 1 mg/mL, 15 minutes
# Procedure: as §1
# [2] = tested on: Haemophilus parainfluenzae; assay: as above; assay type: cell-based; conditions: treated vs untreated explant of same patient, 1 mg/mL, 15 minutes
# Procedure: as §1
# E. faecalis = assay: as above; assay type: cell-based; conditions: treated vs untreated explant of same patient, 1 mg/mL, 15 minutes
# Procedure: as §1
# [3] = tested on: gram-positive and gram-negative bacteria on infected prostheses; assay: Human patient knee explant study (Example 5), ex vivo CFU analysis, all implants; assay type: cell-based; conditions: 1 mg/mL in dPBS pH 7.4, 15 minutes; vs untreated implant of same patient
# Procedure: as §1
# [4] = Local or systemic toxicity in animal models; assay type: in vivo
# S. aureus = assay: MIC, CLSI protocol, planktonic ESKAPE pathogens; assay type: cell-based, Staphylococcus aureus; conditions: N=4
# Procedure: (§2) Standard Clinical and Laboratory Standards Institute (CLSI) protocol was used to measure the minimum inhibitory concentration (MIC) against each organism. Biofilm model: Implant material was prepared from 0.6 mm diameter stainless steel Kirschner wire and plated at 0.5×10^6 CFU/ml. Mature biofilm developed over 48 hours, wires were washed, and then treated with 1 mg/mL WLBU-2 (SEQ ID: 10) in PBS (pH 7.4) for 5, 15, and 30 minutes. Quantitative culture (colony forming unit, CFU) analysis was then completed.
# (§3) ESKAPE pathogens were selected from a large clinical library of MDR and non-MDR organisms (n>100 organism). […] At 15 minutes, organisms had greater than a 3 log reduction in biofilm mass (E. faecium: 3 log 10; S. aureus: 5 log 10; K. pneumoniae 6 log 10; A. baumannii 5 log 10; P. aeruginosa 8 log 10; E. cloacae 7 log 10; E. coli 5 log 10).
# A. baumannii = assay: MIC, CLSI protocol, planktonic ESKAPE pathogens; assay type: cell-based, Acinetobacter baumannii; conditions: N=24
# Procedure: as §2, §3
# E. coli [5] = assay: MIC, CLSI protocol, planktonic ESKAPE pathogens; assay type: cell-based; conditions: N=8
# Procedure: as §2, §3
# E. cloacae = assay: MIC, CLSI protocol, planktonic ESKAPE pathogens; assay type: cell-based; conditions: N=2
# Procedure: as §2, §3
# K. pneumoniae = assay: MIC, CLSI protocol, planktonic ESKAPE pathogens; assay type: cell-based, Klebsiella pneumoniae; conditions: N=8
# Procedure: as §2, §3
# bacterial burden = assay: Survival study with rabbit PJI model; assay type: in vivo; conditions: for survival rates of rabbits as a function of days post-infection: observed up to 14 days (Group 4: 28 days)
# Procedure: In the following Examples 1-5, the administered WLBU-2 formulations were prepared as described in this paragraph. Exemplary pharmaceutical formulations comprising WLBU-2 were prepared at concentrations of 0.5 mg/mL and 1.0 mg/mL in vehicle (dPBS), by formulating under aseptic conditions. WLBU-2 was added while mixing to approximately 90% of volume with vehicle, and mixed until the solution was clear. The solution was adjusted to pH 7.4 using a 1% NaOH solution. dPBS was added quantity sufficient to final volume. The final pH of the solution was read and recorded.
# This example illustrates the antibacterial activity an exemplary formulation of WLBU-2, beta lactam antibiotic, and in combination in reducing CFU in vivo with varying concentrations and time of exposure.
# A bone tunnel in the tibial canal was created using a drill with a 1.2 mm or 1.6 mm tungsten carbide drill bit. The bone tunnel was then dried and treated to simulate acute human PJI following primary arthroplasty. A Kirschner wire implant was placed in the bone tunnel and the wound closed. Prior to closure of the superficial skin layer, 0.1 mL of 2×10^6 planktonic bacteria (CFU/rabbit) in saline was injected into the joint space. A closure was performed, and a biofilm was allowed to become established over a period of 2 days.
# In each group, the joint space was reopened and treated with I&D at 2 days post-infection. Group 1 received neither cefazolin nor WLBU-2. Group 2 received cefazolin but not WLBU-2. Group 3 received WLBU-2 but not the cefazolin. Group 4 received both cefazolin and WLBU-2 treatment. Where applicable, cefazolin was delivered subcutaneously at 10 mg/kg BID for 5 days. Where applicable, WLBU-2 was delivered with 2 ml of WLBU-2 at 1 mg/ml with exposure of 15 minutes. […] When an animal was sick or needed to be euthanized, the implant and a part of the tibia was collected postmortem and CFU analysis was performed. All surviving animals (except for Group 4) were euthanized on day 14 and the implant and tibia were collected most mortem.
# P. aeruginosa = assay: MIC, CLSI protocol, planktonic ESKAPE pathogens; assay type: cell-based, Pseudomonas aeruginosa; conditions: N=20
# Procedure: as §2, §3
# [6] = cefazolin 10 mg/kg sc BID 5 days and/or WLBU-2 2 ml at 1 mg/ml 15 minutes, vs untreated Group 1
# [7] = cefazolin 10 mg/kg sc BID 5 days and/or WLBU-2 2 ml at 1 mg/ml 15 minutes, vs untreated Group 1, listed as cefazolin
compound,measurement,setting,value
"CC(C)[C@H](NC(=O)[C@H](Cc1c[nH]c2ccccc12)NC(=O)[C@H](CCCNC(=N)N)NC(=O)[C@H](CCCNC(=N)N)NC(=O)[C@@H](NC(=O)[C@@H](NC(=O)[C@H](CCCNC(=N)N)NC(=O)[C@@H](NC(=O)[C@@H](NC(=O)[C@H](CCCNC(=N)N)NC(=O)[C@H](CCCNC(=N)N)NC(=O)[C@H](Cc1c[nH]c2ccccc12)NC(=O)[C@@H](NC(=O)[C@H](CCCNC(=N)N)NC(=O)[C@H](CCCNC(=N)N)NC(=O)[C@@H](NC(=O)[C@H](CCCNC(=N)N)NC(=O)[C@H](CCCNC(=N)N)NC(=O)[C@@H](NC(=O)[C@H](Cc1c[nH]c2ccccc12)NC(=O)[C@H](CCCNC(=N)N)NC(=O)[C@@H](N)CCCNC(=N)N)C(C)C)C(C)C)C(C)C)C(C)C)C(C)C)C(C)C)C(C)C)C(=O)N[C@@H](CCCNC(=N)N)C(=O)N[C@@H](CCCNC(=N)N)C(=O)O [WLBU-2, RRWVRRVRRVWRRVVRVVRRWVRR] (H-RRWVRRVRRVWRRVVRVVRRWVRR-OH)",Log reduction,S. caprae,7.7
same,Log reduction,S. aureus (MSSA),3.6
same,Log reduction,S. hemolyticus,2.9
same,Log reduction,E. coli [1],6.2 and 5.9
same,Log reduction,S. dysgalactiae,4.0
same,Log reduction,S. aureus (MRSA),7.7
same,Log reduction,[2],7.7
same,Log reduction,E. faecalis,6.7
same,mean log reduction,[3],6 log
same,range of log reduction,[3],2-7.70 log
same,toxicity to local tissue,"[4]; 1 mg/mL for 15 minutes, murine and rabbit PJI animal models",non-toxic to local tissue
same,local or systemic toxicity,[4]; therapeutic range of dosing in animal models,does not have significant local or systemic toxicity
"CC(=O)NC[C@H]1CN(c2ccc(N3CCOCC3)c(F)c2)C(=O)O1 [LZD, linezolid]",minimum inhibitory concentration (MIC),S. aureus,4
"C[C@H]1COc2c(N3CCN(C)CC3)c(F)cc3c(=O)c(C(=O)O)cn1c23 [LVX, levofloxacin]",minimum inhibitory concentration (MIC),S. aureus,.015-.03
"CN(C)c1cc(NC(=O)CNC(C)(C)C)c(O)c2c1C[C@H]1C[C@H]3[C@H](N(C)C)C(O)=C(C(N)=O)C(=O)[C@@]3(O)C(O)=C1C2=O [TIG, tigecycline]",minimum inhibitory concentration (MIC),A. baumannii,1-16
same,minimum inhibitory concentration (MIC),E. coli [5],.25-0.5
same,minimum inhibitory concentration (MIC),E. cloacae,0.5-2
same,minimum inhibitory concentration (MIC),K. pneumoniae,0.5-2
"CN[C@H](CC(C)C)C(=O)N[C@H]1C(=O)N[C@@H](CC(N)=O)C(=O)N[C@H]2C(=O)N[C@H]3C(=O)N[C@H](C(=O)N[C@H](C(=O)O)c4cc(O)cc(O)c4-c4cc3ccc4O)[C@H](O)c3ccc(c(Cl)c3)Oc3cc2cc(c3O[C@@H]2O[C@H](CO)[C@@H](O)[C@H](O)[C@H]2O[C@H]2C[C@](C)(N)[C@H](O)[C@H](C)O2)Oc2ccc(cc2Cl)[C@H]1O [VAN, vancomycin]",minimum inhibitory concentration (MIC),S. aureus,1
"C[C@@H](O)[C@H]1C(=O)N2C(C(=O)O)=C(SCCN=CN)C[C@H]12 [IPM, imipenem]",minimum inhibitory concentration (MIC),E. cloacae,0.25
same,minimum inhibitory concentration (MIC),S. aureus,.015-.03
Cc1nnc(SCC2=C(C(=O)O)N3C(=O)[C@@H](NC(=O)Cn4cnnn4)[C@H]3SC2)s1 [Cefazolin],body weight as a function of days post infection,"bacterial burden; I&D 2 days post-infection, cefazolin 10 mg/kg sc BID 5 days and/or WLBU-2 2 ml at 1 mg/ml 15 minutes",No significance
same,"bacterial burden of collected implants (CFU analysis), reduction",bacterial burden; [6],significantly lower bacterial burden
same,"bacterial burden of collected tibia (bone CFU analysis), reduction",bacterial burden; [6],2.6 log
same,"total CFU (implant and bone), reduction in total bacterial burden",bacterial burden; [6],Significant reductions in total bacterial burden
same,"bacterial burden of collected tibia (bone CFU analysis), reduction",bacterial burden; [7],significantly lower bacterial burden
same,"total CFU (implant and bone), reduction in total bacterial burden",bacterial burden; [7],significantly lower bacterial burden
same,survival rates of rabbits as a function of days post-infection,bacterial burden; vs untreated Group 1,improved survival in comparison to Group 1
same,survival rates of rabbits as a function of days post-infection,"bacterial burden; vs untreated Group 1, listed as cefazolin",second-best survival rates
colistin,minimum inhibitory concentration (MIC),P. aeruginosa,.12-2^
same,minimum inhibitory concentration (MIC),E. coli [5],.06-.25
same,minimum inhibitory concentration (MIC),E. cloacae,.06-.25
same,minimum inhibitory concentration (MIC),K. pneumoniae,.06-16
